In patent US5281628A, “9-amino-7-(substituted)-6-demethyl-6-deoxytetracyclines” (American Cyanamid Company, priority 1991, dated 1994):
Where a name gives a salt, the structure may show the parent alone.

Experiments:
S. aureus and E. coli = test: Acute lethal infections in mice, statements over several strains; type: in vivo; details: S. aureus and E. coli carrying tetM
Method: The therapeutic effects of tetracyclines are determined against acute lethal infections with various staphylococcal and E. coli strains. Female mice, strain CD-1 Charles River Laboratories, (20±2 grams) are challenged by an intraperitoneal injection of sufficient bacteria (suspended in broth or hog gastric mucin) to kill non-treated controls within 24-48 hours. Antibacterial agents, contained in 0.5 ml of 0.2% aqueous agar, are administered subcutaneously or orally 30 minutes after infection. When an oral dosing schedule is used, animals are deprived of food for 5 hours before and 2 hours after infection. Five mice are treated at each dose level. The 7 day survival ratios from three separate tests are pooled for calculation of median effective dose (ED50).

[1] = test system: E. coli S30 Ribosomes, Wild Type (tetracycline sensitive); test: In vitro protein translation with E. coli S30 ribosomes, wild type; type: biochemical; details: for inhibition of protein synthesis on wild type ribosomes (in words): coupled transcription and translation system
Method: (§1) The E. coli in vitro translation system can be used to study not only the mechanism of protein translation itself, but also the effect that various compounds may have on protein synthesis. The system can be set up to function as a coupled transcription and translation system or as a translation only system depending on whether DNA or RNA is added to initiate protein synthesis. In this way, compounds affecting either RNA synthesis and/or protein synthesis can be studied. Protein synthesis is monitored by the incorporation of radiolabeled amino acids into trichloroacetic acid precipitable material. The system used is based upon literature methods [G. Zubay, Ann. Rev. Genet., 7: 267-287(1973) and J. Collins, Gene, 6: 28-42 (1979)].
(§2) The system used to study tetracycline protein synthesis inhibition is as follows:
(§3) An S30 extract (supernatant from a 30,000×G centrifugation of lysed cells) of either tetracycline sensitive or tetracycline resistant (tetM+) cells is combined with a mixture of low molecular weight compounds required for protein synthesis which include a mixture of 19 amino acids, methionine, ^35 S-methionine, plasmid template DNA and either dimethylsulfoxide (DMSO) or the tetracycline to be tested dissolved and diluted in DMSO. This mixture is incubated at 37° C. for 30 minutes. Following the incubation, 2.5 μl of the 10 μl reaction is removed and added to 0.5 ml of 1N sodium hydroxide. The solution is incubated an additional 15 minutes at 37° C., to destroy any m-RNA and t-RNA. The incorporation of ^35 S-methionine is determined by precipitating the high molecular weight material in the sodium hydroxide aliquot with trichloroacetic acid (TCA), collecting the precipitated material on Whatman G/FC filters, drying the filters and counting the radioactivity retained on the filter. Percent inhibition (P.I.) of protein synthesis is determined by the following equation: [formula]

[2] = test system: E. coli S30 Ribosomes, tetM Variant (tetM protected ribosomes); test: In vitro protein translation with E. coli S30 ribosomes, tetM variant; type: biochemical; details: for inhibition of protein synthesis on tetM protected ribosomes (in words): coupled transcription and translation system
Method: as §1, §2, §3

[3] = test system: tetracycline sensitive and resistant Gram-positive and Gram-negative bacteria; test: In vitro antibacterial evaluation, statements on the whole panel; type: cell-based
Method: (§4) The minimum inhibitory concentration (MIC), the lowest concentration of the antibiotic which inhibits growth of the test organism, is determined by the microtiter broth dilution method using 0.1 ml Muller-Hinton II broth (Baltimore Biological Laboratories) per well. A suitable oxygen scavenger (i.e., cysteine or dithiothreitol) is added to the assay medium for the testing of compounds according to Formula I because of the sensitivity of those compounds to oxidation. An inoculum level of 1-5×10^5 CFU/ml and a range of antibiotic concentrations (32 0.004 μg/ml) are used.

[4] = test system: X. maltophilia FPOR 87-210; test: MIC, microtiter broth dilution; type: cell-based; details: Stenotrophomonas maltophilia, FPOR87210, 18 h, no cysteine stated
Method: as §4

E. coli UBMS 89-1 (tetM) = test: MIC, microtiter broth dilution; type: cell-based; details: Escherichia coli, 18 h
Method: as §4

M. morganii NEMC 87-119 = test: MIC, microtiter broth dilution; type: cell-based; details: Morganella morganii, NEMC87119, 18 h, no cysteine stated
Method: as §4

[5] = test system: E. faecalis AMV 120 (tetM); test: MIC, microtiter broth dilution; type: cell-based; details: Enterococcus faecalis, 18 h
Method: as §4

E. coli UBMS 90-4 (tetM) = test: MIC, microtiter broth dilution; type: cell-based; details: Escherichia coli, 18 h
Method: as §4

[6] = test system: E. faecalis PAM 211 (tetN); test: MIC, microtiter broth dilution; type: cell-based; details: Enterococcus faecalis, 18 h
Method: as §4

[7] = test system: E. coli UBMS 89-2 (tetracycline-sensitive); test: MIC, microtiter broth dilution; type: cell-based; details: Escherichia coli, 18 h, no cysteine stated
Method: as §4

[8] = test system: S. aureus UBMS 88-7 (tetK); test: microbe, parasite or virus in culture; type: cell-based; details: Staphylococcus aureus, 18 h
Method: as §4

[9] = Wild Type S30 no DTT, 1.0 mg/ml
[10] = Wild Type S30 no DTT, 1:2 Dilution
[11] = Wild Type S30 no DTT, 1:4 Dilution
[12] = Wild Type S30 no DTT, 1:8 Dilution
[13] = Wild Type S30 no DTT, 1:16 Dilution
[14] = Wild Type S30 no DTT, 1:32 Dilution
[15] = Wild Type S30 no DTT, 1:64 Dilution
[16] = Wild Type S30 with DTT, 1.0 mg/ml
[17] = Wild Type S30 with DTT, 1:2 Dilution
[18] = Wild Type S30 with DTT, 1:4 Dilution
[19] = Wild Type S30 with DTT, 1:8 Dilution
[20] = Wild Type S30 with DTT, 1:16 Dilution
[21] = Wild Type S30 with DTT, 1:32 Dilution
[22] = Wild Type S30 with DTT, 1:64 Dilution
[23] = tetM S30 with DTT, 1:2 Dilution
[24] = tetM S30 with DTT, 1:4 Dilution
[25] = tetM S30 with DTT, 1:8 Dilution
[26] = tetM S30 with DTT, 1:16 Dilution
[27] = tetM S30 with DTT, 1:32 Dilution
[28] = tetM S30 with DTT, 1:64 Dilution

## CN(C)c1cc(N)c(O)c2c1C[C@H]1C[C@H]3[C@H](N(C)C)C(O)=C(C(N)=O)C(=O)[C@@]3(O)C(O)=C1C2=O [A, 9-Amino-7-(dimethylamino)-6-demethyl-6-deoxytetracycline hydrochloride]
S. aureus and E. coli
  ED50 compared with B, strains which carry the tetM resistance determinant: Lowered ED50 's
[1]; [9]
  % Inhibition: 88%
  Counts: 52595
[1]; [10]
  % Inhibition: 82%
  Counts: 80494
[1]; [11]
  % Inhibition: 79%
  Counts: 95015
[1]; [12]
  % Inhibition: 72%
  Counts: 130209
[1]; [13]
  % Inhibition: 55%
  Counts: 205392
[1]; [14]
  % Inhibition: 35%
  Counts: 297786
[1]; [15]
  % Inhibition: 46%
  Counts: 245494
[1]; [16]
  % Inhibition: 96%
  Counts: 38121
[1]; [17]
  % Inhibition: 93%
  Counts: 60891
[1]; [18]
  % Inhibition: 89%
  Counts: 92203
[1]; [19]
  % Inhibition: 84%
  Counts: 143215
[1]; [20]
  % Inhibition: 75%
  Counts: 214831
[1]; [21]
  % Inhibition: 73%
  Counts: 238321
[1]; [22]
  % Inhibition: 56%
  Counts: 380103
[1]
  inhibition of protein synthesis on wild type ribosomes (in words): effectively inhibit protein synthesis
[2]
  inhibition of protein synthesis on tetM protected ribosomes (in words): effective in inhibiting protein synthesis
[2]; tetM S30 no DTT, 1.0 mg/ml
  % Inhibition: 48%
  Counts: 129780
[2]; tetM S30 no DTT, 1:2 Dilution
  % Inhibition: 36%
  Counts: 158861
[2]; tetM S30 no DTT, 1:4 Dilution
  % Inhibition: 18%
  Counts: 203184
[2]; tetM S30 no DTT, 1:8 Dilution
  % Inhibition: 7%
  Counts: 231447
[2]; tetM S30 no DTT, 1:16 Dilution
  % Inhibition: 0%
  Counts: 305633
[2]; tetM S30 no DTT, 1:32 Dilution
  % Inhibition: 0%
  Counts: 349994
[2]; tetM S30 no DTT, 1:64 Dilution
  % Inhibition: 0%
  Counts: 310723
[2]; tetM S30 with DTT, 1.0 mg/ml
  % Inhibition: 68%
  Counts: 145068
[2]; [23]
  % Inhibition: 62%
  Counts: 168574
[2]; [24]
  % Inhibition: 49%
  Counts: 226708
[2]; [25]
  % Inhibition: 36%
  Counts: 284606
[2]; [26]
  % Inhibition: 16%
  Counts: 375989
[2]; [27]
  % Inhibition: 8%
  Counts: 412967
[2]; [28]
  % Inhibition: 0%
  Counts: 507461
[3]; S. aureus UBMS 88-5, 90-1 and 90-2, E. coli UBMS 89-1 and 90-4
  in vitro activity against tetracycline resistant strains carrying the tetM resistance determinant: good in vitro activity
[3]; susceptible strains, comparator B
  effectiveness vs. susceptible strains compared with B: equally as effective

## CN(C)c1ccc(O)c2c1C[C@H]1C[C@H]3[C@H](N(C)C)C(O)=C(C(N)=O)C(=O)[C@@]3(O)C(O)=C1C2=O [B, 7-(Dimethylamino)-6-demethyl-6-deoxytetracycline hydrochloride]
[1]; [9]
  % Inhibition: 87%
  Counts: 57696
[1]; [10]
  % Inhibition: 83%
  Counts: 76804
[1]; [11]
  % Inhibition: 88%
  Counts: 53400
[1]; [12]
  % Inhibition: 64%
  Counts: 162405
[1]; [13]
  % Inhibition: 53%
  Counts: 213077
[1]; [14]
  % Inhibition: 33%
  Counts: 306650
[1]; [15]
  % Inhibition: 0%
  Counts: 457601
[1]; [16]
  % Inhibition: 93%
  Counts: 58885
[1]; [17]
  % Inhibition: 91%
  Counts: 78961
[1]; [18]
  % Inhibition: 87%
  Counts: 111971
[1]; [19]
  % Inhibition: 83%
  Counts: 149792
[1]; [20]
  % Inhibition: 76%
  Counts: 207484
[1]; [21]
  % Inhibition: 67%
  Counts: 289304
[1]; [22]
  % Inhibition: 41%
  Counts: 518601
[1]
  inhibition of protein synthesis on wild type ribosomes (in words): effectively inhibit protein synthesis
[4]
  MIC: 0.06 µg/mL
E. coli UBMS 89-1 (tetM)
  MIC: 8 µg/mL
M. morganii NEMC 87-119
  MIC: 2 µg/mL
[5]
  MIC: 16 µg/mL
E. coli UBMS 90-4 (tetM)
  MIC: > 32 µg/mL
[6]
  MIC: 16 µg/mL
[7]
  MIC: 0.5 µg/mL
[8]
  MIC: 0.03 µg/mL
[2]
  inhibition of protein synthesis on tetM protected ribosomes (in words): unable to inhibit protein synthesis
[2]; tetM S30 no DTT, 1.0 mg/ml
  % Inhibition: 0%
  Counts: 281528
[2]; tetM S30 no DTT, 1:2 Dilution
  % Inhibition: 0%
  Counts: 258633
[2]; tetM S30 no DTT, 1:4 Dilution
  % Inhibition: 0%
  Counts: 248904
[2]; tetM S30 no DTT, 1:8 Dilution
  % Inhibition: 0%
  Counts: 289595
[2]; tetM S30 no DTT, 1:16 Dilution
  % Inhibition: 0%
  Counts: 287498
[2]; tetM S30 no DTT, 1:32 Dilution
  % Inhibition: 0%
  Counts: 262329
[2]; tetM S30 no DTT, 1:64 Dilution
  % Inhibition: 0%
  Counts: 249242
[2]; tetM S30 with DTT, 1.0 mg/ml
  % Inhibition: 17%
  Counts: 371475
[2]; [23]
  % Inhibition: 26%
  Counts: 331439
[2]; [24]
  % Inhibition: 17%
  Counts: 373168
[2]; [25]
  % Inhibition: 6%
  Counts: 421533
[2]; [26]
  % Inhibition: 0%
  Counts: 493679
[2]; [27]
  % Inhibition: 0%
  Counts: 490283
[2]; [28]
  % Inhibition: 0%
  Counts: 452837
[3]; in the presence of cysteine versus without
  Antibacterial potency in the presence of cysteine: not enhanced
